# Assay results: PubChem BioAssay AID342 (DTP/NCI, 2004)
# Where “and” joins values, the source holds several entries; their conditions need not be identical. Identical values can stand only once.
# System: Swiss mice, Sarcoma 180 sc, mean tumor weight T/C
# Experiment: NCI In Vivo Anticancer Drug Screen. Data for tumor model Sarcoma 180 (subcutaneous) in Swiss mice
# Conditions: endpoint: mean tumor weight, higher = larger tumour
# Summary of the method: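 Tumor-bearing mice, transplantable tumor; readout survival or tumor size; result = T/C, treated vs vehicle control.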
# [1] = dose: 187.5 mg/kg/injection, schedule: Q#A X014 (sc), vehicle: steriod suspending solution
# [2] = dose: 281.25 mg/kg/injection, schedule: Q#A X014 (sc), vehicle: steriod suspending solution
structure (smiles),measurement,setting,value
CCCCCCCCCCCCCCCCNc1cccc2ccccc12,T/C,"dose: 111.0 mg/kg/injection, schedule: Q#A X014 (ip), vehicle: methylcellulose (MC)",64 % of control and 82 % of control
same,T/C,"dose: 166.5 mg/kg/injection, schedule: Q#A X014 (ip), vehicle: methylcellulose (MC)",49 % of control and 66 % of control
same,T/C,"dose: 250.0 mg/kg/injection, schedule: Q#A X014 (ip), vehicle: methylcellulose (MC)",41 % of control
C#C[C@]1(O)CC[C@H]2[C@@H]3CCc4cc(O)ccc4[C@H]3CC[C@@]21C,T/C,"dose: 125.0 mg/kg/injection, schedule: Q#A X014 (sc), vehicle: steriod suspending solution",30 % of control and 48 % of control and 50 % of control
same,T/C,[1],39 % of control and 50 % of control and 51 % of control
same,T/C,[2],62 % of control and 76 % of control
NC(=O)c1[nH]cnc1/N=N/N1CCCC1,T/C,"dose: 62.5 mg/kg/injection, schedule: Q#A X014 (ip), vehicle: carboxymethylcellulose (CMC)",73 % of control
same,T/C,"dose: 125.0 mg/kg/injection, schedule: Q#A X014 (ip), vehicle: carboxymethylcellulose (CMC)",107 % of control
C=CCn1cnc2c(=S)nc[nH]c21,T/C,"dose: 31.0 mg/kg/injection, schedule: Q01DX007 (ip), vehicle: carboxymethylcellulose (CMC)",86 % of control
same,T/C,"dose: 62.0 mg/kg/injection, schedule: Q01DX007 (ip), vehicle: carboxymethylcellulose (CMC)",54 % of control
O=C(O)c1ccc(N=NSc2ncnc3nc[nH]c23)cc1O,T/C,"dose: 0.2 mg/kg/injection, schedule: Q01DX007 (ip), vehicle: carboxymethylcellulose (CMC)",101 % of control
same,T/C,"dose: 0.5 mg/kg/injection, schedule: Q01DX007 (ip), vehicle: carboxymethylcellulose (CMC)",115 % of control
same,T/C,"dose: 1.0 mg/kg/injection, schedule: Q01DX007 (ip), vehicle: carboxymethylcellulose (CMC)",108 % of control
same,T/C,"dose: 8.0 mg/kg/injection, schedule: Q01DX007 (ip), vehicle: carboxymethylcellulose (CMC)",9 % of control
CC(=O)[C@H]1[C@H](C)C[C@H]2[C@@H]3CCC4=CC(=O)CC[C@]4(C)[C@@]3(F)[C@@H](O)C[C@@]21C,T/C,"dose: 3.0 mg/kg/injection, schedule: Q01DX007 (sc), vehicle: steriod suspending solution",87 % of control
same,T/C,"dose: 6.1 mg/kg/injection, schedule: Q01DX007 (sc), vehicle: steriod suspending solution",63 % of control
same,T/C,"dose: 12.5 mg/kg/injection, schedule: Q01DX007 (sc), vehicle: steriod suspending solution",47 % of control
same,T/C,"dose: 25.0 mg/kg/injection, schedule: Q01DX007 (sc), vehicle: steriod suspending solution",44 % of control
same,T/C,"dose: 47.0 mg/kg/injection, schedule: Q01DX007 (sc), vehicle: steriod suspending solution",13 % of control
same,T/C,"dose: 94.0 mg/kg/injection, schedule: Q01DX007 (sc), vehicle: steriod suspending solution",26 % of control
same,T/C,[1],29 % of control and 31 % of control and 33 % of control
same,T/C,[2],22 % of control and 28 % of control and 42 % of control
same,T/C,"dose: 500.0 mg/kg/injection, schedule: Q01DX007 (sc), vehicle: steriod suspending solution",25 % of control
same,T/C,"dose: 562.0 mg/kg/injection, schedule: Q01DX007 (sc), vehicle: steriod suspending solution",36 % of control
same,T/C,"dose: 600.0 mg/kg/injection, schedule: Q01DX007 (sc), vehicle: steriod suspending solution",20 % of control
same,T/C,"dose: 700.0 mg/kg/injection, schedule: Q01DX007 (sc), vehicle: steriod suspending solution",28 % of control
same,T/C,"dose: 800.0 mg/kg/injection, schedule: Q01DX007 (sc), vehicle: steriod suspending solution",16 % of control
same,T/C,"dose: 843.0 mg/kg/injection, schedule: Q01DX007 (sc), vehicle: steriod suspending solution",21 % of control
same,T/C,"dose: 1265.0 mg/kg/injection, schedule: Q01DX007 (sc), vehicle: steriod suspending solution",29 % of control
same,T/C,"dose: 1890.0 mg/kg/injection, schedule: Q01DX007 (sc), vehicle: steriod suspending solution",24 % of control
